Columns and labels:
High Fat Diet Rats = experiment: Losing weight and depressing blood fat in high-fat diet SD rats; type: in vivo; settings: intragastric once a day for a month, compounds 25 mg/kg, sibutramine 1.0 mg/kg, mean ± SD, n = 10
Method: 1. Activity Determination of Losing Weight and Depressing Blood Fat of SD Rats
The experiment refers to the methods in Experimental Methodology of Pharmacology compiled by Xu Shuyun et al, People's Medical Publishing House 2002: 1189-1201, which is slightly modified.
SD rates (weight 80 g-100 g, male, clean grade) are randomly divided into the following groups according to the weight:
Blank control group (normal diet group); model control group (high-fat diet group); sibutramine, 1.0 mg/kg; Group I-1, 25 mg/kg; Group I-2, 25 mg/kg; Group I-3, 25 mg/kg; Group II-1, 25 mg/kg; Group II-2, 25 mg/kg; Group II-3, 25 mg/kg.
Except the blank control group, the other groups are fed with high-fat diet for two months. In the third month, all groups are required for intragastric administration and the blank control group and model control group are given appropriate volume of excipients once a day for a consecutive month. After the administration, exsanguinate and kill the rats, take femoral arterial blood and separate the plasma, and then measure the parameters according to the unified operating procedures in the kit instructions. Remove the fat around abdominal cavity and reproductive organs, weigh its wet weight and determine the body weight.

[1] = tested on: high fat and high sugar model ICR mice; experiment: Losing weight, depressing blood fat and regulating blood sugar balance in high fat and high sugar ICR mice; type: in vivo; parameters: Serum insulin concentration INS: unit not given here; settings: n = 10, x ± s
Description: 2. Activity Determination of Losing Weight, Depressing Blood Fat and Regulating Blood Sugar Balance of ICR Mice
The experiment refers to the methods of Raquel Ferrer-Lorente et al (European Journal of Pharmacology, 2005, 513: 243-248), which are slightly modified.
Take 40 ICR mice (male, weight 13-15 g) and randomly divide them into two large groups according to their weight, a normal diet group (n=10) and a high fat and high sugar model group (n=30); give normal diet to the normal diet group and conduct subcutaneous injection of physiological saline each day; give high-fat and high-sugar diet to the high fat and high sugar model group and conduct subcutaneous injection of insulin (0.5 U/kg) each day. The food is not restricted. Measure the food regularly each day, weigh the weight once a week and feed 7 consecutive weeks.
7 weeks after modeling, the normal diet group is unchanged and the high fat and high sugar model group is divided into model control group (n=10), I-1 administration group (n=10) and I-2 administration group (n=10). The feed of each group is unchanged. The administration group is given corresponding compounds with the dose of 50 mg/kg and the blank group is given the equal volume of blank solvent. Conduct intragastric administration on each group for consecutive 30 days. Weigh 12 h after fasting after last administration, take the eyeballs for blood, prepare serum, determine the blood fat (triglyceride TG, free fatty acid FFA, total cholesterol TC, low density lipoprotein cholesterol LDL-C and high density lipoprotein cholesterol HDL-C) content and blood insulin content and detect the oxidative damage indicators in the blood (malondialdehyde MAD and superoxide dismutase SOD). Take off the cervical vertebrae to kill the rats, separate the perirenal, testicular, mesenteric and inguinal (subcutaneous) white adipose tissue, wash clean with cold physiological saline and dry with filter paper, and then weigh.

PPARγ2-mRNA = experiment: RT-PCR of PPARγ2-mRNA expression in 3T3-L1 cells; type: cell-based; settings: during differentiation of preadipocyte 3T3-L1; GAPDH internal reference; FIG. 4
Method: 4.1.3 Reverse Transcription
Polymerase chain reaction (RT-PCR) experiment Extract the total RNA of fully differentiated 3T3-L1 cells to be reversely transcribed into cDNA. The primers are designed as follows:
• The length of the target product is 567 bp.
• The length of the target product is 424 bp.
PCR amplification conditions: initial denaturation at 94 for 5 min, then denaturize at 94 for 30 s, anneal at 57 for 40 s, and extend at 72 for 50 s, a total of 30 cycles. Finally extend at 72 for 10 min. Then conduct electrophoresis analysis with 1.5% agarose gel. GAPDH is used as the internal reference to alleviate the error between different samples. Compare the optical density of objective band with the optical density of amplified GAPDH band for analysis.

[2] = cited from earlier work
[3] = 50 mg/kg intragastric for 30 days
[4] = high fat and high sugar model, 50 mg/kg intragastric daily
[5] = serum, 50 mg/kg intragastric for 30 days

CCCCC/C=C\C/C=C\CCCCCCCC(=O)Oc1ccc2c(=O)c(-c3ccc(OC)cc3)coc2c1 [I-2, 4′-methoxy-7-O-linoleoyl daizeol]
Fat index (High Fat Diet Rats): 4.3 ± 1.5 g/100 g
Free fatty acid FFA (High Fat Diet Rats): 603.8 ± 163.5 µmol/L
Total cholesterol TC (High Fat Diet Rats): 1.28 ± 0.26 mmol/L
Triglyceride TG (High Fat Diet Rats): 0.99 ± 0.21 mmol/L
Weight after administration (High Fat Diet Rats): 307 ± 32 g
Celiac total fat [1, 3]: 0.329 ± 0.403 g
Epididymal fat [1, 3]: 0.212 ± 0.239 g
MDA (serum oxidative damage indicator) [1, 3]: 1.288 ± 0.145 nmol/L
Mesenteric fat [1, 3]: 0.058 ± 0.101 g
Perirenal fat [1, 3]: 0.059 ± 0.057 g
SOD (serum oxidative damage indicator) [1, 3]: 424.1 ± 192.8 U/ml
Serum insulin concentration INS [1, 3]: 22.32 ± 6.39
Subcutaneous fat [1, 3]: 0.099 ± 0.071 g
Body weight 1 week after [1, 4]: 39.1 ± 4.1 g
Body weight 2 weeks after [1, 4]: 32.9 ± 5.7 g
Body weight 3 weeks after [1, 4]: 29.5 ± 2.3 g
Body weight before administration ([1]; high fat and high sugar model, baseline before 50 mg/kg intragastric): 42.0 ± 4.4 g
FFA [1, 5]: 0.43 ± 0.04 mmol/L
HDL-C [1, 5]: 1.56 ± 0.29 mmol/L
LDL-C [1, 5]: 0.880 ± 0.655 mmol/L
TC [1, 5]: 3.18 ± 0.46 mmol/L
TG [1, 5]: 0.71 ± 0.22 mmol/L
PPARγ2-mRNA expression quantity (PPARγ2-mRNA): increased

CCCCCCCCCCCCCCCCCC(=O)Oc1ccc2c(=O)c(-c3ccc(OC)cc3)coc2c1 [I-3, 4′-methoxy-7-O-stearoyl daizeol]
Fat index (High Fat Diet Rats): 5.4 ± 1.2 g/100 g
Free fatty acid FFA (High Fat Diet Rats): 730.2 ± 186.0 µmol/L
Total cholesterol TC (High Fat Diet Rats): 1.57 ± 0.30 mmol/L
Triglyceride TG (High Fat Diet Rats): 1.19 ± 0.30 mmol/L
Weight after administration (High Fat Diet Rats): 320 ± 34 g
PPARγ2-mRNA expression quantity (PPARγ2-mRNA): significantly decreased

CCCCCCCCCCCCCCCC(=O)Oc1ccc2c(=O)c(-c3ccc(OC)cc3)coc2c1 [I-4, 4′-methoxy-7-O-palmityl daizeol]
PPARγ2-mRNA expression quantity (PPARγ2-mRNA): significantly decreased

CCCCCCCC/C=C\CCCCCCCC(=O)Oc1ccc(-c2coc3cc(OC)ccc3c2=O)cc1 [II-1, 7-methoxy-4′-O-oleoyl daizeol]
Fat index (High Fat Diet Rats): 5.6 ± 1.6 g/100 g
Free fatty acid FFA (High Fat Diet Rats): 696.3 ± 205.4 µmol/L
Total cholesterol TC (High Fat Diet Rats): 1.65 ± 0.25 mmol/L
Triglyceride TG (High Fat Diet Rats): 1.01 ± 0.24 mmol/L
Weight after administration (High Fat Diet Rats): 328 ± 32 g

CCCCC/C=C\C/C=C\CCCCCCCC(=O)Oc1ccc(-c2coc3cc(OC)ccc3c2=O)cc1 [II-2, 7-methoxy-4′-O-linoleoyl daizeol]
Fat index (High Fat Diet Rats): 5.1 ± 1.3 g/100 g
Free fatty acid FFA (High Fat Diet Rats): 658.8 ± 201.2 µmol/L
Total cholesterol TC (High Fat Diet Rats): 1.67 ± 0.23 mmol/L
Triglyceride TG (High Fat Diet Rats): 1.03 ± 0.21 mmol/L
Weight after administration (High Fat Diet Rats): 318 ± 28 g

CCCCCCCCCCCCCCCCCC(=O)Oc1ccc(-c2coc3cc(OC)ccc3c2=O)cc1 [II-3, 7-methoxy-4′-O-stearoyl daizeol]
Fat index (High Fat Diet Rats): 6.0 ± 2.1 g/100 g
Free fatty acid FFA (High Fat Diet Rats): 738.1 ± 196.0 µmol/L
Total cholesterol TC (High Fat Diet Rats): 1.71 ± 0.34 mmol/L
Triglyceride TG (High Fat Diet Rats): 1.35 ± 0.35 mmol/L
Weight after administration (High Fat Diet Rats): 352 ± 47 g

CCCCCCCC/C=C\CCCCCCCC(=O)Oc1ccc2c(c1)CC[C@@H]1[C@@H]2CC[C@]2(C)C(=O)CC[C@@H]12 [OE, Oleoyl-estrone]
Half-life ([2]; intravenous injection): 4.17 min
Fraction absorbed in estrone water-soluble ester ([2]; oral administration): 12%
Fraction absorbed in free estrone form ([2]; oral administration): 17%

CC(C)CC(N(C)C)C1(c2ccc(Cl)cc2)CCC1 (centres unmarked) [Sibutramine, reference compound]
Fat index (High Fat Diet Rats): 4.3 ± 1.7 g/100 g
Free fatty acid FFA (High Fat Diet Rats): 609.6 ± 138.3 µmol/L
Total cholesterol TC (High Fat Diet Rats): 1.32 ± 0.29 mmol/L
Triglyceride TG (High Fat Diet Rats): 0.97 ± 0.31 mmol/L
Weight after administration (High Fat Diet Rats): 301 ± 41 g

From US8846752B2, “Isoflavone fatty acid ester derivatives, preparation method and pharmaceutical uses thereof” (China Pharmaceutical University, priority 2010, dated 2014)
